Laboratory results published in patent US12661355B2, “Compounds and methods for inducing UCP1 expression” (The Regents of the University of California, priority 2020, dated 2026).
“Also recorded” adds a separate entry of the source.

Legend:
[1] = test system: UCP1; experiment: Gene expression in immortalized human white adipocytes; type: cell-based; conditions: 10 μM for 4 days
Procedure: Human immortalized brown and white preadipocytes were obtained from Dr. Yu-Hua Tseng (Joslin Diabetes Center, Harvard Medical School, USA). The generation of the two cell lines from human neck adipose tissue biopsies and immortalization was performed as previously described but from a different donor. Cells were cultured in high glucose DMEM supplemented with 10% FBS and antibiotics. Two days after reaching confluence, cells were treated with 30 μM biotin, 500 nM insulin, 17 μM pantothenate, 100 nM dexamethasone, 2 nM 3,3′,5-Triiodo-L-thyronine, 500 μM IBMX, 30 μM indomethacin and 1 μM rosiglitazone, for 12 days. Afterwards, cells were treated with 30 μM biotin, 500 nM insulin, 17 μM pantothenate and 2 nM 3,3′,5-Triiodo-L-thyronine (Maintenance media) for 2 days with end-point assays performed on day 18, and for 5 days with end-point assays performed on day 21, for the brown and white adipocytes cells, respectively.
Mouse RNA levels were measured by qPCR according to known methods. Data were normalized to B2m and Tbp reference genes. Human RNA was extracted using an RNA Mini Plus kit (Zymo) and gene expression determined by Taqman assay. The 1-step qPCR was run on a QuantStudio 12K Flex Real Time PCR System (ThermoFisher) using the following protocol: 50° C. for 5 minutes, 95° C. for 20 seconds, 40 cycles of 95° C. for 15 seconds and 60° C. for 60 seconds. […]

[2] = molecular target: T1, AKAP6 (Mus musculus, UniProt E9Q9K8); experiment: CETSA in brown adipocytes, AKAP6; type: binding; conditions: 10 μM for 8 h
T1 construct: endogenous in cells; host or cells: immortalized mouse brown adipocytes
T1 sequence (E9Q9K8 1-2307): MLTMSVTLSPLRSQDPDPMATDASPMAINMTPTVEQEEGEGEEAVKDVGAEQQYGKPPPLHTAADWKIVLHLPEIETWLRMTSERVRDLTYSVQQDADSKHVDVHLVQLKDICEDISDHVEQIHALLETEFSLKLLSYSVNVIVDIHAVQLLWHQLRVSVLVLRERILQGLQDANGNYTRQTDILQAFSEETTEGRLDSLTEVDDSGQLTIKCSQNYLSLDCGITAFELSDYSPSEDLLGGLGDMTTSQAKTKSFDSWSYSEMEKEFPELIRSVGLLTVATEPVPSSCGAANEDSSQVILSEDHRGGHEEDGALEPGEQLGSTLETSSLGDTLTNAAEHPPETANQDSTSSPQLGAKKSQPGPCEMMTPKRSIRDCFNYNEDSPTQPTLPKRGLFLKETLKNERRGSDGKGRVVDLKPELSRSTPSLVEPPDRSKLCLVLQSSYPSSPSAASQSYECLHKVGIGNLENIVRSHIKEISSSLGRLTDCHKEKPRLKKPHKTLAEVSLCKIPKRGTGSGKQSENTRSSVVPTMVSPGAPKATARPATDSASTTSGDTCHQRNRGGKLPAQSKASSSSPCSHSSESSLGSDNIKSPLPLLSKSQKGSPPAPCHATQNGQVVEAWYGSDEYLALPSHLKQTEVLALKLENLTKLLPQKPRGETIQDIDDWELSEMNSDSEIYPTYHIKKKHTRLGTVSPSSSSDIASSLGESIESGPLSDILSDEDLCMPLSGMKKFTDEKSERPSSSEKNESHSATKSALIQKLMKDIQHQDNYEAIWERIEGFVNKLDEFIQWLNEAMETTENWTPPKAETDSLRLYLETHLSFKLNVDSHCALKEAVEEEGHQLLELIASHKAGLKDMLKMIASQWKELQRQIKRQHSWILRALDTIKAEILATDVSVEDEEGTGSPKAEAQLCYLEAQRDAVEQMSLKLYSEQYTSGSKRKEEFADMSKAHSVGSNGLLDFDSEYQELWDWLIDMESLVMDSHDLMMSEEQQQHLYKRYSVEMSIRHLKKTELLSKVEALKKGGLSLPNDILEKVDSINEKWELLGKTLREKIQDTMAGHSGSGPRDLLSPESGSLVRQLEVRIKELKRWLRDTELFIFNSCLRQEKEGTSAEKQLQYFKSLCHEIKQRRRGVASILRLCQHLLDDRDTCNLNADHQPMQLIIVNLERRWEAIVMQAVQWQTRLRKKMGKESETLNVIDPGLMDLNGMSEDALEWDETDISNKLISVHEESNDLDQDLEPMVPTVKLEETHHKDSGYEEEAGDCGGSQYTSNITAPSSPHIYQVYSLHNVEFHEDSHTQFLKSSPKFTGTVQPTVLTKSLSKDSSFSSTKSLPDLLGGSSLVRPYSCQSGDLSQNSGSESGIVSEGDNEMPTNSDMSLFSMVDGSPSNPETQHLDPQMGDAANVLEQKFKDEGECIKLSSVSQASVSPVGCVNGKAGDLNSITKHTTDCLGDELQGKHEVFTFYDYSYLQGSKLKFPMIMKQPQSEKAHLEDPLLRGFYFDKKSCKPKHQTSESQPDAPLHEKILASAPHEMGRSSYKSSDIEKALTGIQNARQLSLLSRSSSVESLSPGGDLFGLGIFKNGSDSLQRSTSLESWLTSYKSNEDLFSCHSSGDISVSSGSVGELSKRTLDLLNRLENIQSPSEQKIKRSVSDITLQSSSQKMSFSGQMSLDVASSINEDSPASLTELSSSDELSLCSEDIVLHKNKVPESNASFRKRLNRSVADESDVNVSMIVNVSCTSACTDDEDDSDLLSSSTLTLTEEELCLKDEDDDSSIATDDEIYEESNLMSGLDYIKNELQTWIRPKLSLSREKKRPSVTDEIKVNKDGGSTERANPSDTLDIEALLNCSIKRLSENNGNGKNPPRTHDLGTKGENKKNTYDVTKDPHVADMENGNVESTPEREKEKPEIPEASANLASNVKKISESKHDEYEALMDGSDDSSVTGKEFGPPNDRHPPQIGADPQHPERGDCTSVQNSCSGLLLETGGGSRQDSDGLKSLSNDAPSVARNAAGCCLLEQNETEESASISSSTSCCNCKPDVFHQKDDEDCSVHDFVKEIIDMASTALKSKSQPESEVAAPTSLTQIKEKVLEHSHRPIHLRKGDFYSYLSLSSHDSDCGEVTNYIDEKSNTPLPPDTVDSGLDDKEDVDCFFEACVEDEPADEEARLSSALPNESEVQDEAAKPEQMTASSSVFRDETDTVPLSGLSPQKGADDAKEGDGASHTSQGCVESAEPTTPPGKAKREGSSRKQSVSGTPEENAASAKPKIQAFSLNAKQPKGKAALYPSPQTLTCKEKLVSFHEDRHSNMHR
Procedure: CETSA assays were performed according to known methods. Briefly, differentiated brown adipocytes (one 10 cm dish per treatment) were treated with vehicle or compounds, trypsinized, counted, and re-suspended in approximately 450 μl PBS containing protease inhibitors (volumes were adjusted to have the same number of cells in each treatment). For each sample, 18 μl was distributed into each of 7 PCR tubes. Samples were heated using a thermocycler with a temperature gradient (iCycler, Biorad) for 3 min, followed by 3 min at room temperature, and then snap-frozen in liquid N2. After two freeze-thaw cycles, samples were centrifuged at 20,000 g for 15 min at 4° C., and the supernatants were transferred to another set of tubes. Proteins were analyzed by immunoblotting.
The potential interaction of Z160 with PKA subunits and AKAPs was assessed first by identifying which PKA subunits and AKAP isoforms are normally present in BAT. […] To perform the CETSA assays, cultured brown adipocytes were incubated with 10 μM Z160 for 8 h, after which the thermal shift was analyzed by Western blot.

[3] = test system: CYTC and GAPDH; experiment: Western blot of mitochondria-associated proteins, CYTC and GAPDH; type: cell-based, mouse; conditions: brown adipocytes, 10 μM
Procedure: Cells and tissues were lysed in 10 mM Tris pH 7.5, 10 mM NaCl, 1 mM EDTA and 0.5% Triton X-100, supplemented with complete mini EDTA-free protease (Roche Diagnostics) and phosphatase (Cocktail 2 and 3, Sigma) inhibitors, followed by 10 second sonication. For analysis of mitochondrial proteins, mitochondria were isolated from cells by dual centrifugation, as described. Protein lysates were separated by SDS-PAGE and transferred to a nitrocellulose membrane. Transfer was confirmed by Ponceau staining (P7170, Sigma). After blocking in 5% milk, 0.1% Tween-20 in Tris-buffered saline (TBS), primary antibody was incubated overnight at 4° C. in 5% bovine serum albumin and 0.1% Tween-20 in TBS. Primary antibodies against ACTB (GTX109639, GeneTex), AKAP1 (5203, Cell Signaling), AKAP6 (07-087, Millipore), Cytochrome c (136F3, Cell Signaling), electron transport chain protein complexes (Total OXPHOS rodent WB antibody cocktail ab110413, Abcam), GAPDH (GTX100118, Genetex), active p38 MAPK (V1211, Promega), total p38 MAPK (8690, Cell Signaling), PGC1α (AB3242, Millipore), phospho-(Ser/Thr) PKA substrate (9621, Cell Signaling), PKA C-α (4782, Cell Signaling), PKA RII-β (ab75993, Abcam), and UCP1 (662045, Calbiochem) were used at 1:2000. […] Quantification using representative bands from the Ponceau staining was performed with ImageJ. […]

[4] = test system: NRVM; experiment: Hypertrophic gene expression in neonatal rat ventricular myocytes; type: cell-based; conditions: 10 μM Z160 concomitantly with 60 μM isoproterenol or 50 μM phenylephrine, 2 days
Procedure: Rat H9c2 cells were grown in DMEM supplemented with 10% FBS, 25 mM glucose, 1 mM pyruvate, and 2 mM glutamine Neonatal rat ventricular myocytes (NRVM) were isolated and cultured as previously described. Briefly, 2-4 day old rats were sacrificed and myocytes and fibroblasts were isolated and separated using a Percoll density gradient. Following isolation, NRVMs were plated on gelatin-coated plates in DMEM containing 10% FBS, 25 mM glucose, 1 mM pyruvate, and 2 mM glutamine The next day, FBS was replaced by 1× insulin-transferrin-selenium supplement and the cells were treated with vehicle or 10 μM Z160 for 2 days, with or without 60 μM isoproterenol or 50 μM phenylephrine.
RNA levels were measured by qPCR according to known methods. Briefly, RNA was extracted with TRIzol (Invitrogen) and reverse transcribed with iScript (Bio-Rad). Real-time PCR analysis was performed with a CFX Connect (Bio-Rad).

SMILES: COc1ccc(NC(=O)CSc2nc3ccccc3c(=O)[nH]2)c(OC)c1 [Z160]
- UCP1 expression [1]: 7 fold
- expression of CIDEA, ACADM, CPT1B and ELOVL3 [1]: greatly increased expression
- heat stability of AKAP6 [2]: did not influence the heat stability
- levels of CYTC and GAPDH in the mitochondrial fraction [3]: not altered
- effect on hypertrophic gene expression profile (Nppa, Nppb, Pln) induced by isoproterenol or phenylephrine [4]: prevented the induction of a hypertrophic gene expression profile; also recorded: reverses the effect of ISO and PE
